Source: PubChem BioAssay AID1918947 (Molecular Pharmacology Branch, DTP, NCI, 2023)
Where “and” joins values, the source holds several entries; their conditions need not be identical. Equal entries are not always repeated.

System: A498 complex spheroid viability
Assay: Anticancer human tumor A498 cell line growth inhibition;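 also: spheroids exposed to agents for seven days before readout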;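 as to viability, T/C: 100% = DMSO vehicle-treated spheroids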
Settings: for viability, T/C: stronger effect = lower value
Method in brief: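 Drug combinations with the LSD1 inhibitor iadademstat tested on tumor cells co-cultured as spheroids with endothelial cells and mesenchymal stem cells. Concentrations descended in half-log increments from clinical Cmax or 10 microM.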

[1] = curve of first compound, second compound 0.1 µM
[2] = curve of first compound, second compound 0.316 µM
[3] = curve of first compound, second compound 1 µM
[4] = curve of first compound, second compound 3.16 µM
[5] = curve of first compound, second compound 10 µM
[6] = second compound 0.1 µM, first compound 0.00949 µM
[7] = second compound 0.1 µM, first compound 0.03 µM
[8] = second compound 0.1 µM, first compound 0.0949 µM
[9] = second compound 0.1 µM, first compound 0.3 µM
[10] = second compound 0.316 µM, first compound 0.00949 µM
[11] = second compound 0.316 µM, first compound 0.03 µM
[12] = second compound 0.316 µM, first compound 0.0949 µM
[13] = second compound 0.316 µM, first compound 0.3 µM
[14] = second compound 1 µM, first compound 0.00949 µM
[15] = second compound 1 µM, first compound 0.03 µM
[16] = second compound 1 µM, first compound 0.0949 µM
[17] = second compound 1 µM, first compound 0.3 µM
[18] = second compound 3.16 µM, first compound 0.00949 µM
[19] = second compound 3.16 µM, first compound 0.03 µM
[20] = second compound 3.16 µM, first compound 0.0949 µM
[21] = second compound 3.16 µM, first compound 0.3 µM
[22] = second compound 10 µM, first compound 0.00949 µM
[23] = second compound 10 µM, first compound 0.03 µM
[24] = second compound 10 µM, first compound 0.0949 µM
[25] = second compound 10 µM, first compound 0.3 µM

COc1cc(C2c3cc4c(cc3C(OC3OC5COC(C)OC5C(O)C3O)C3COC(=O)C23)OCO4)cc(OC)c1O (configuration not stated) + NC1CC1c1ccc(-c2cccc(O)c2)cc1 gave an IC50 [1] of 1800 nM, an IC50 [2] of over 3000 nM and an IC50 [3] of 1110 nM. The IC50 [4] was 296 nM, the IC50 [5] was 523 nM and the viability, T/C [6] was 75.3%. It also gave a viability, T/C [7] of 68.7%, a viability, T/C [8] of 62.1% and a viability, T/C [9] of 62.8%. The viability, T/C (second compound 0.1 µM, first compound 0.949 µM) was 58.2%, the viability, T/C (second compound 0.1 µM, first compound 3 µM) was 44.4% and the viability, T/C [10] was 87.3%. For the same compound, the viability, T/C [11] was 74.7%, the viability, T/C [12] was 68.7% and the viability, T/C [13] was 58.6%. For the same compound, the viability, T/C (second compound 0.316 µM, first compound 0.949 µM) was 55.6%, the viability, T/C (second compound 0.316 µM, first compound 3 µM) was 51.3% and the viability, T/C [14] was 76.7%. For the same compound, the viability, T/C [15] was 63%, the viability, T/C [16] was 59.9% and the viability, T/C [17] was 49.8%. The viability, T/C (second compound 1 µM, first compound 0.949 µM) was 54.1%, the viability, T/C (second compound 1 µM, first compound 3 µM) was 46.5% and the viability, T/C [18] was 66.4%. For the same compound, the viability, T/C [19] was 53.6%, the viability, T/C [20] was 55.9% and the viability, T/C [21] was 52.2%. The viability, T/C (second compound 3.16 µM, first compound 0.949 µM) was 46.1%, the viability, T/C (second compound 3.16 µM, first compound 3 µM) was 42.9% and the viability, T/C [22] was 63.5%. The viability, T/C [23] was 61.1%, the viability, T/C [24] was 57.5% and the viability, T/C [25] was 51.7%. The viability, T/C (second compound 10 µM, first compound 0.949 µM) was 47.4% and the viability, T/C (second compound 10 µM, first compound 3 µM) was 41.7%.
In the case of Nc1ccn(C2OC(CO)C(O)C2(F)F)c(=O)n1 (configuration not stated) + NC1CCC(NC2CC2c2ccccc2)CC1, the IC50 [1] is reported as under 0.949 nM, the IC50 [2] is reported as under 0.949 nM and the IC50 [3] is reported as under 0.949 nM. For the same compound, the IC50 [4] was under 0.949 nM, the IC50 [5] was under 0.949 nM and the viability, T/C (second compound 0.1 µM, first compound 0.000949 µM) was 25.7%. The viability, T/C (second compound 0.1 µM, first compound 0.003 µM) was 32.9%, the viability, T/C [6] was 41.2% and the viability, T/C [7] was 38%. It also gave a viability, T/C [8] of 36.8%, a viability, T/C [9] of 29.9% and a viability, T/C (second compound 0.316 µM, first compound 0.000949 µM) of 24.3%. The viability, T/C (second compound 0.316 µM, first compound 0.003 µM) was 33.9%, the viability, T/C [10] was 44.2% and the viability, T/C [11] was 43.3%. The viability, T/C [12] was 36.8%, the viability, T/C [13] was 31.1% and the viability, T/C (second compound 1 µM, first compound 0.000949 µM) was 21.7%. The viability, T/C (second compound 1 µM, first compound 0.003 µM) was 32.8%, the viability, T/C [14] was 43.2% and the viability, T/C [15] was 40.8%. It also gave a viability, T/C [16] of 29.9%, a viability, T/C [17] of 29.3% and a viability, T/C (second compound 3.16 µM, first compound 0.000949 µM) of 23.8%. It also gave a viability, T/C (second compound 3.16 µM, first compound 0.003 µM) of 30.5%, a viability, T/C [18] of 38.2% and a viability, T/C [19] of 38.2%. For the same compound, the viability, T/C [20] was 30.8%, the viability, T/C [21] was 30.3% and the viability, T/C (second compound 10 µM, first compound 0.000949 µM) was 22.3%. It also gave a viability, T/C (second compound 10 µM, first compound 0.003 µM) of 26.7%, a viability, T/C [22] of 39.8% and a viability, T/C [23] of 38.5%. It also gave a viability, T/C [24] of 27.9% and a viability, T/C [25] of 25.5%.
With Nc1ccccc1NC(=O)c1ccc(CNC(=O)OCc2cccnc2)cc1 the viability, T/C (compound 0.00949 µM) was 91.2% and 95%, the viability, T/C (compound 0.03 µM) was 84.3% and 96.3% and the viability, T/C (compound 0.0949 µM) was 81.4% and 80.8%. For the same compound, the viability, T/C (compound 0.3 µM) was 53.1% and 62%, the viability, T/C (compound 0.949 µM) was 19.8% and 24.2% and the viability, T/C (compound 3 µM) was 1.79% and 6.46%. The IC50 (curve of compound) was 342 nM and 416 nM.
In the case of O=C(C=Cn1cnc(-c2cc(C(F)(F)F)cc(C(F)(F)F)c2)n1)NNc1cnccn1 + NC1CC1c1ccc(-c2cccc(O)c2)cc1, the IC50 [1] is reported as 11.8 nM, the IC50 [2] is reported as 9.73 nM and the IC50 [3] is reported as 9.22 nM. It also gave an IC50 [4] of 6.36 nM, an IC50 [5] of 7.24 nM and a viability, T/C (second compound 0.1 µM, first compound 0.00316 µM) of 69.8%. It also gave a viability, T/C (second compound 0.1 µM, first compound 0.01 µM) of 50.3%, a viability, T/C (second compound 0.1 µM, first compound 0.0316 µM) of 40.5% and a viability, T/C (second compound 0.1 µM, first compound 0.1 µM) of 29.3%. The viability, T/C (second compound 0.1 µM, first compound 0.316 µM) was 25.2%, the viability, T/C (second compound 0.1 µM, first compound 1 µM) was 19.3% and the viability, T/C (second compound 0.316 µM, first compound 0.00316 µM) was 72.2%. The viability, T/C (second compound 0.316 µM, first compound 0.01 µM) was 47.7%, the viability, T/C (second compound 0.316 µM, first compound 0.0316 µM) was 37.5% and the viability, T/C (second compound 0.316 µM, first compound 0.1 µM) was 28.8%. It also gave a viability, T/C (second compound 0.316 µM, first compound 0.316 µM) of 25.8%, a viability, T/C (second compound 0.316 µM, first compound 1 µM) of 20.1% and a viability, T/C (second compound 1 µM, first compound 0.00316 µM) of 70.9%. It also gave a viability, T/C (second compound 1 µM, first compound 0.01 µM) of 46.9%, a viability, T/C (second compound 1 µM, first compound 0.0316 µM) of 37.1% and a viability, T/C (second compound 1 µM, first compound 0.1 µM) of 28.4%. The viability, T/C (second compound 1 µM, first compound 0.316 µM) was 27.8%, the viability, T/C (second compound 1 µM, first compound 1 µM) was 20.7% and the viability, T/C (second compound 3.16 µM, first compound 0.00316 µM) was 61%. It also gave a viability, T/C (second compound 3.16 µM, first compound 0.01 µM) of 41.9%, a viability, T/C (second compound 3.16 µM, first compound 0.0316 µM) of 34.8% and a viability, T/C (second compound 3.16 µM, first compound 0.1 µM) of 26.8%. It also gave a viability, T/C (second compound 3.16 µM, first compound 0.316 µM) of 27%, a viability, T/C (second compound 3.16 µM, first compound 1 µM) of 22.3% and a viability, T/C (second compound 10 µM, first compound 0.00316 µM) of 61.3%. It also gave a viability, T/C (second compound 10 µM, first compound 0.01 µM) of 43.8%, a viability, T/C (second compound 10 µM, first compound 0.0316 µM) of 36.5% and a viability, T/C (second compound 10 µM, first compound 0.1 µM) of 31.8%. For the same compound, the viability, T/C (second compound 10 µM, first compound 0.316 µM) was 24.1% and the viability, T/C (second compound 10 µM, first compound 1 µM) was 21.6%.
